Common to all, as to test: relative viability (nuclei count vs DMSO), 5 days (fraction); higher = more cells survive
Compound in the experiment “VX-702 + Olaparib”: NC(=O)c1ccc(N(C(N)=O)c2c(F)cccc2F)nc1-c1ccc(F)cc1F [VX-702] + O=C(c1cc(Cc2n[nH]c(=O)c3ccccc23)ccc1F)N1CCN(C(=O)C2CC2)CC1 [Olaparib] (partner 8 µM)
Put shortly:
(§1)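 The day after seeding in 1536-well plates, lung cancer cell lines were treated by pin tool with a single drug, or with a fixed anchor-drug dose together with five library-drug doses (not always all listed) in √10 steps. After 5 days, a combined fix-and-stain solution (final 0.05% Triton X-100, 1% formaldehyde, 1 ug/ml Hoechst) was added. Nuclei counted on 4× images gave relative viability as treated counts over vehicle counts, reported as the median of duplicate plates.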

Compound in the experiment “VX-702 + Pictilisib”: NC(=O)c1ccc(N(C(N)=O)c2c(F)cccc2F)nc1-c1ccc(F)cc1F [VX-702] + CS(=O)(=O)N1CCN(Cc2cc3nc(-c4cccc5[nH]ncc45)nc(N4CCOCC4)c3s2)CC1 [Pictilisib] (partner 1 µM)
Put shortly: as §1

Compound in the experiment “Dabrafenib + Palbociclib”: CC(C)(C)c1nc(-c2cccc(NS(=O)(=O)c3c(F)cccc3F)c2F)c(-c2ccnc(N)n2)s1 [Dabrafenib] + CC(=O)c1c(C)c2cnc(Nc3ccc(N4CCNCC4)cn3)nc2n(C2CCCC2)c1=O [Palbociclib] (partner 0.5 µM)
The method, boiled down: as §1

Compound in the experiment “VX-702 + Palbociclib”: NC(=O)c1ccc(N(C(N)=O)c2c(F)cccc2F)nc1-c1ccc(F)cc1F [VX-702] + CC(=O)c1c(C)c2cnc(Nc3ccc(N4CCNCC4)cn3)nc2n(C2CCCC2)c1=O [Palbociclib] (partner 0.5 µM)
Put shortly: as §1

Consider A549, for which the relative viability is 0.444 with VX-702 + Olaparib (first compound 0.02 µM); 0.243 with VX-702 + Olaparib (first compound 0.2 µM); 0.374 in the experiment with VX-702 + Olaparib (first compound 0.6325 µM); 0.114 with VX-702 + Olaparib (first compound 2 µM); 0.48 with VX-702 + Pictilisib (first compound 0.02 µM); 0.517 with VX-702 + Pictilisib (first compound 0.2 µM). Also, the results for the relative viability in the experiment with VX-702 + Pictilisib (first compound 0.6325 µM) and with VX-702 + Pictilisib (first compound 2 µM) were 0.519 and 0.705, respectively.

For the cell line NCI-H661, the relative viability is 0.383 with Dabrafenib + Palbociclib (first compound 0.003 µM); 0.406 with Dabrafenib + Palbociclib (first compound 0.009487 µM); 0.426 with Dabrafenib + Palbociclib (first compound 0.03 µM); 0.458 with Dabrafenib + Palbociclib (first compound 0.09487 µM); 0.433 in the experiment with Dabrafenib + Palbociclib (first compound 0.3 µM); 0.752 in the experiment with VX-702 + Olaparib (first compound 0.02 µM). Moreover, the relative viability with VX-702 + Olaparib (first compound 0.2 µM) was 0.73; in the experiment with VX-702 + Olaparib (first compound 0.6325 µM) it was 0.756; with VX-702 + Olaparib (first compound 2 µM) it was 0.798; in the experiment with VX-702 + Palbociclib (first compound 0.02 µM) it was 0.413; with VX-702 + Palbociclib (first compound 0.2 µM) it was 0.409; with VX-702 + Palbociclib (first compound 0.6325 µM) it was 0.409. For the same cell line, the relative viability with VX-702 + Palbociclib (first compound 2 µM) came to 0.408; with VX-702 + Pictilisib (first compound 0.02 µM) it was 0.395; with VX-702 + Pictilisib (first compound 0.2 µM), 0.458; with VX-702 + Pictilisib (first compound 0.6325 µM), 0.426; in the experiment with VX-702 + Pictilisib (first compound 2 µM), 0.421.

Consider NCI-H650, for which the relative viability with Dabrafenib + Palbociclib (first compound 0.009487 µM) is 0.375; with Dabrafenib + Palbociclib (first compound 0.03 µM), 0.308; in the experiment with Dabrafenib + Palbociclib (first compound 0.09487 µM), 0.305; with Dabrafenib + Palbociclib (first compound 0.3 µM) it was 0.238; in the experiment with VX-702 + Olaparib (first compound 0.02 µM) it was 0.435; with VX-702 + Olaparib (first compound 0.2 µM), 0.433. Besides, the relative viability is 0.452 with VX-702 + Olaparib (first compound 0.6325 µM); 0.456 in the experiment with VX-702 + Olaparib (first compound 2 µM); 0.349 in the experiment with VX-702 + Palbociclib (first compound 0.02 µM); 0.327 in the experiment with VX-702 + Palbociclib (first compound 0.2 µM); 0.326 with VX-702 + Palbociclib (first compound 0.6325 µM); 0.348 in the experiment with VX-702 + Palbociclib (first compound 2 µM). For the same cell line, the relative viability stood at 0.745 in the experiment with VX-702 + Pictilisib (first compound 0.02 µM), 0.821 in the experiment with VX-702 + Pictilisib (first compound 0.6325 µM) and 1.05 with VX-702 + Pictilisib (first compound 2 µM).

With NCI-H2009, the relative viability is 0.153 in the experiment with Dabrafenib + Palbociclib (first compound 0.003 µM); 0.22 in the experiment with Dabrafenib + Palbociclib (first compound 0.009487 µM); 0.179 with Dabrafenib + Palbociclib (first compound 0.03 µM); 0.149 with Dabrafenib + Palbociclib (first compound 0.09487 µM); 0.128 in the experiment with Dabrafenib + Palbociclib (first compound 0.3 µM); 0.751 with VX-702 + Olaparib (first compound 0.02 µM). The relative viability is 0.705 with VX-702 + Olaparib (first compound 0.2 µM); 0.739 with VX-702 + Olaparib (first compound 0.6325 µM); 0.842 in the experiment with VX-702 + Olaparib (first compound 2 µM); 0.247 with VX-702 + Palbociclib (first compound 0.02 µM); 0.25 with VX-702 + Palbociclib (first compound 0.2 µM); 0.257 with VX-702 + Palbociclib (first compound 0.6325 µM). The relative viability with VX-702 + Palbociclib (first compound 2 µM) amounted to 0.246; with VX-702 + Pictilisib (first compound 0.02 µM), 0.866; with VX-702 + Pictilisib (first compound 0.2 µM), 0.739; in the experiment with VX-702 + Pictilisib (first compound 0.6325 µM), 0.789; in the experiment with VX-702 + Pictilisib (first compound 2 µM) it was 1.05.

As to LC-2-ad, the relative viability with Dabrafenib + Palbociclib (first compound 0.003 µM) was 0.52; with Dabrafenib + Palbociclib (first compound 0.009487 µM), 0.511; with Dabrafenib + Palbociclib (first compound 0.03 µM) it was 0.495; in the experiment with Dabrafenib + Palbociclib (first compound 0.09487 µM) it was 0.476; with Dabrafenib + Palbociclib (first compound 0.3 µM), 0.478; in the experiment with VX-702 + Olaparib (first compound 0.02 µM), 0.724. The relative viability in the experiment with VX-702 + Olaparib (first compound 0.2 µM) is 0.678; in the experiment with VX-702 + Olaparib (first compound 0.6325 µM), 0.799; in the experiment with VX-702 + Olaparib (first compound 2 µM), 0.776; in the experiment with VX-702 + Palbociclib (first compound 0.02 µM), 0.496; in the experiment with VX-702 + Palbociclib (first compound 0.2 µM), 0.451; with VX-702 + Palbociclib (first compound 0.6325 µM), 0.525. For the same cell line, the relative viability with VX-702 + Palbociclib (first compound 2 µM) was 0.478; in the experiment with VX-702 + Pictilisib (first compound 0.02 µM), 0.472; with VX-702 + Pictilisib (first compound 0.2 µM), 0.45; with VX-702 + Pictilisib (first compound 0.6325 µM), 0.446; with VX-702 + Pictilisib (first compound 2 µM) it was 0.433.

Turning to HCC-366, the relative viability with Dabrafenib + Palbociclib (first compound 0.003 µM) worked out at 0.434; with Dabrafenib + Palbociclib (first compound 0.009487 µM) it was 0.403; with Dabrafenib + Palbociclib (first compound 0.03 µM), 0.336; with Dabrafenib + Palbociclib (first compound 0.09487 µM) it was 0.354; in the experiment with Dabrafenib + Palbociclib (first compound 0.3 µM), 0.344; with VX-702 + Olaparib (first compound 0.02 µM) it was 0.409. Besides, the relative viability with VX-702 + Olaparib (first compound 0.2 µM) is 0.361; with VX-702 + Olaparib (first compound 0.6325 µM), 0.353; with VX-702 + Olaparib (first compound 2 µM), 0.269; in the experiment with VX-702 + Palbociclib (first compound 0.02 µM), 0.409; in the experiment with VX-702 + Palbociclib (first compound 0.2 µM) it was 0.412; with VX-702 + Palbociclib (first compound 0.6325 µM) it was 0.389. For the same cell line, the relative viability with VX-702 + Palbociclib (first compound 2 µM) stood at 0.333; in the experiment with VX-702 + Pictilisib (first compound 0.02 µM), 0.132; in the experiment with VX-702 + Pictilisib (first compound 0.2 µM) it was 0.148; in the experiment with VX-702 + Pictilisib (first compound 0.6325 µM), 0.154; with VX-702 + Pictilisib (first compound 2 µM), 0.113.

UMC-11: the relative viability in the experiment with Dabrafenib + Palbociclib (first compound 0.003 µM) is 0.33; with Dabrafenib + Palbociclib (first compound 0.009487 µM), 0.31; in the experiment with Dabrafenib + Palbociclib (first compound 0.03 µM), 0.288; in the experiment with Dabrafenib + Palbociclib (first compound 0.09487 µM) it was 0.327; with Dabrafenib + Palbociclib (first compound 0.3 µM), 0.349; with VX-702 + Olaparib (first compound 0.02 µM) it was 0.346. In addition, the relative viability came out at 0.352 with VX-702 + Olaparib (first compound 0.2 µM); 0.368 with VX-702 + Olaparib (first compound 0.6325 µM); 0.269 with VX-702 + Olaparib (first compound 2 µM); 0.319 with VX-702 + Palbociclib (first compound 0.02 µM); 0.327 in the experiment with VX-702 + Palbociclib (first compound 0.2 µM); 0.336 in the experiment with VX-702 + Palbociclib (first compound 0.6325 µM). Besides, the relative viability with VX-702 + Palbociclib (first compound 2 µM) was 0.309; with VX-702 + Pictilisib (first compound 0.02 µM) it was 0.696; in the experiment with VX-702 + Pictilisib (first compound 0.2 µM), 0.762; in the experiment with VX-702 + Pictilisib (first compound 0.6325 µM), 0.582; in the experiment with VX-702 + Pictilisib (first compound 2 µM), 0.813.

Take PC-3 [JPC-3]: the relative viability was 0.571 with Dabrafenib + Palbociclib (first compound 0.009487 µM); 0.6 with Dabrafenib + Palbociclib (first compound 0.03 µM); 0.534 with Dabrafenib + Palbociclib (first compound 0.09487 µM); 0.55 with Dabrafenib + Palbociclib (first compound 0.3 µM); 1.2 with VX-702 + Olaparib (first compound 0.02 µM); 1.14 with VX-702 + Olaparib (first compound 0.2 µM). In addition, the relative viability amounted to 1.16 with VX-702 + Olaparib (first compound 0.6325 µM); 1.31 in the experiment with VX-702 + Olaparib (first compound 2 µM); 0.568 in the experiment with VX-702 + Palbociclib (first compound 0.02 µM); 0.517 with VX-702 + Palbociclib (first compound 0.2 µM); 0.566 with VX-702 + Palbociclib (first compound 0.6325 µM); 0.553 with VX-702 + Palbociclib (first compound 2 µM). The relative viability turned out to be 0.806 with VX-702 + Pictilisib (first compound 0.02 µM), 0.737 with VX-702 + Pictilisib (first compound 0.2 µM), 0.884 with VX-702 + Pictilisib (first compound 0.6325 µM) and 0.388 with VX-702 + Pictilisib (first compound 2 µM).

Take NCI-H596: the relative viability with VX-702 + Olaparib (first compound 0.02 µM) stood at 0.66; in the experiment with VX-702 + Olaparib (first compound 0.2 µM), 0.714; with VX-702 + Olaparib (first compound 0.6325 µM) it was 0.898; in the experiment with VX-702 + Olaparib (first compound 2 µM) it was 0.685; with VX-702 + Pictilisib (first compound 0.02 µM) it was 0.398; with VX-702 + Pictilisib (first compound 0.2 µM), 0.246. Besides, the relative viability with VX-702 + Pictilisib (first compound 0.6325 µM) amounted to 0.392; with VX-702 + Pictilisib (first compound 2 µM), 0.389.

With NCI-H441, the relative viability stood at 0.268 in the experiment with Dabrafenib + Palbociclib (first compound 0.009487 µM); 0.239 in the experiment with Dabrafenib + Palbociclib (first compound 0.03 µM); 0.2 in the experiment with Dabrafenib + Palbociclib (first compound 0.09487 µM); 0.248 with Dabrafenib + Palbociclib (first compound 0.3 µM); 0.567 with VX-702 + Olaparib (first compound 0.02 µM); 0.553 in the experiment with VX-702 + Olaparib (first compound 0.2 µM). In addition, the relative viability with VX-702 + Olaparib (first compound 0.6325 µM) was 0.572; with VX-702 + Olaparib (first compound 2 µM), 0.661; with VX-702 + Palbociclib (first compound 0.02 µM), 0.19; in the experiment with VX-702 + Palbociclib (first compound 0.2 µM), 0.235; with VX-702 + Palbociclib (first compound 0.6325 µM), 0.204; in the experiment with VX-702 + Palbociclib (first compound 2 µM), 0.162. The relative viability is 0.503 in the experiment with VX-702 + Pictilisib (first compound 0.02 µM), 0.492 with VX-702 + Pictilisib (first compound 0.2 µM), 0.352 with VX-702 + Pictilisib (first compound 0.6325 µM) and 0.494 with VX-702 + Pictilisib (first compound 2 µM).

Values taken from the supplement of paper PMC10307832.
